The values below come from patent publication US11246949B2, “Imaging contrast agents and uses thereof” (The Research Foundation for The State University of New York, priority 2011, dated 2022).

Data set [1] is described as follows: Dissociation of the metal ion complex (kinetic inertness). It is filed as physicochemical.
Data set [2] is described as follows: pH-potentiometric titrations: acid-dissociation and ligand-Fe(II) equilibrium constants. It is filed as physicochemical. Particulars: for formation constant log K (binding of macrocycle to metal ion): 100 mM NaCl. On the procedure: FIG. 10. Representative pH-potentiometric titrations for Fe(L1) and Fe(L3) in 100 mM NaCl at 25° C.
Fe(II) paraCEST agents were developed by preparing ligands that stabilize Fe(II) and Ni(II), contain multiple exchangeable protons to enhance the CEST effect and form six or eight coordinate complexes to protect the Fe(II) from binding additional ligands that might complicate the CEST signal. The sexadentate ligands contained the macrocycle, 1,4,7-triazacyclononane, with three pendent groups while the octadentate ligands contained 1,4,7,10-tetraazacyclododecane and four pendent groups (FIG. 1 and FIG. 2). Pyridine pendent groups stabilize Fe(II) relative to Fe(III) (L2, L3), and amide pendent groups are stabilizing of Fe(II) (L1). For example, the pyridine groups in Fe(L3) lead to a high reduction potential of +930 mV vs. NHE. Amide groups contain exchangeable protons and have been commonly used as a basis for Ln(III) paraCEST agents. In contrast, amino pyridine pendent groups and the benzimidazole groups have exchangeable protons that are one bond further away from the Fe-coordinated nitrogen of the pyridine ring. Exchangeable protons close to the Fe(II) center as well as more remotely located protons appended to a ligand pi-system have been studied in this work in order to capitalize on both the dipolar and contact shift contributions of paramagnetic Fe(II). The strategy of using exchangeable protons that are remote from the metal ion center was explored in order to capitalize on both the dipolar and contact shift contributions of paramagnetic Fe(II). Fe(II) complexes were prepared in acetonitrile or in aqueous solution by simple addition of the free base form of the ligands to Fe(CF3SO3)2.

Data set [3] is described as follows: Ascorbate consumption (redox cycling, reactive oxygen species generation). Conditions: 100 μM ascorbate, 10 μM Fe(II), 10 μM ligand, 10 mM HEPES, pH 7.4, 37° C.
Data set [4] can be described thus: Electrochemical potential E° vs. NHE. It is filed as physicochemical. Particulars: 100 mM tetrabutylammonium hexafluorophosphate in acetonitrile. An excerpt:
In an embodiment, the compounds of the invention are stable towards chemical reaction in an oxidative environment (i.e., in the presence of biologically relevant concentrations of peroxide or oxygen). In an embodiment, the stability in an oxidative environment can be related to the reduction potential of the complex. In an embodiment, the compounds of the present invention have a reduction potential greater than 600 mV vs. NHE (Normal Hydrogen Electrode) as shown in Table 1. Generally, the compounds of the invention have a reduction potential above 800 mV vs. NHE.

The nature of data set [5]: Persistence of high spin Fe(II) oxidation state in aqueous solution (1H NMR, μeff). It is filed as physicochemical. Particulars: atmospheric oxygen, several days. The procedure:
Effective magnetic moments are characteristic of high spin Fe(II) at 5.1 BM and 5.8 BM for Fe(L1) and Fe(L2), These were measured in 100 mM NaCl in D2O, pH 7.4, and D2O at pH 7.0, respectively. The ^1H NMR spectra of the two complexes show highly shifted proton resonances (FIGS. 4-5). There are nine non-exchangeable proton resonances for Fe(L2) consistent with trigonal prismatic geometry as observed previously for Fe(L3) and three sets of four chemically inequivalent proton resonances in the macrocycle backbone. […] The exchangeable amide and amine protons were identified by comparison of the ^1H NMR spectra of the complexes in H2O and […]. For Fe(L1), the amide protons are highly shifted downfield, appearing at 77 ppm. The amine protons of Fe(L2) are only slightly shifted and are observed at 11 ppm.
Generally, macrocyclic complexes in FIG. 1 are prepared from the macrocycle and Fe(II) salt such as FeCl2, or Fe(CF3SO3)2 in acetonitrile at room temperature with argon bubbled through the solvent. This helps to ensure that a negligible amount of O2 is present in the reaction flask. In the absence of an inert atmosphere, difficulties in maintaining the desired oxidation state may arise through mechanisms such as oxidation of the metal to Fe(III) prior to complexation with the ligand. […]

In the case of `Nc1cccc(CN2CCN(Cc3cccc(N)n3)CCN(Cc3cccc(N)n3)CC2)n1.[Fe+2]` [Fe(L8)], in data set [1], the “resistance to dissociation >12 h, neutral pH” value (from here on “resistance … neutral pH”) was “good”.

Take `CC(O)CN1CCN(CC(C)O)CCN(CC(C)O)CCN(CC(C)O)CC1.[Fe+2]` (centres unmarked) [Fe(L6)]: the “resistance … neutral pH” value in data set [1] is on record as “Moderate”. The “formation constant log K (binding of macrocycle to metal ion)” value (“formation constant log K” below) in data set [2] is 9.3.

As to `[Fe+2].c1ccc2[nH]c(CN3CCN(Cc4nc5ccccc5[nH]4)CCN(Cc4nc5ccccc5[nH]4)CC3)nc2c1` [Fe(L5)], in data set [1], the “resistance … neutral pH” value is “moderate”.

In the case of `NC(=O)CN1CCN(CC(N)=O)CCN(CC(N)=O)CC1.[Ni+2]` [Ni(L1)], in data set [1], the “resistance … neutral pH” value is “good”. Besides, in data set [1] (neutral and acidic pH, at least 24 hours), the “inertness towards dissociation in solution” value was “inert towards dissociation”.

For `CC(O)CN1CCNCCN(CC(C)O)CCNCC1.[Fe+2]` (centres unmarked) [Fe(L7)], the “resistance … neutral pH” value in data set [1] is on record as “moderate”.

With `NC(=O)CN1CCN(CC(N)=O)CCN(CC(N)=O)CCN(CC(N)=O)CC1.[Fe+2]` [Fe(L4)], in data set [1] (12 hours), the “% dissociation over 12 hours” value turned out to be 0%. For the same compound, in data set [1] (12 hours, 37° C., pH 4 or neutral pH with five equivalents of CuCl2 or ZnCl2), the dissociation after incubation entry is “no dissociation”. Moreover, the “resistance … neutral pH” value in data set [1] was “excellent”. Moreover, the Ascorbate consumption in data set [3] is 4.0 ± 1.0 ×10^−5 (s^−1). Moreover, in data set [4], the “E° vs. NHE” value is 800 ± 5 mV. For the same compound, in data set [2], the “formation constant log K” value came to 7.5.

For the compound `Cc1nc(CN2CCN(Cc3ccc(N)c(C)n3)CCN(Cc3ccc(N)c(C)n3)CC2)ccc1N.[Fe+2]` [Fe(L2)], the “resistance … neutral pH” value in data set [1] is recorded as “good”. In addition, the “resistance to oxidation to Fe(III)” value in data set [5] was “resistant to oxidation to Fe(III)”.

On to `O=C([O-])CN(CCN(CC(=O)[O-])CC(=O)[O-])CC(=O)[O-].[Fe+3]` [Fe(EDTA), reference compound], for which, in data set [3], the Ascorbate consumption is reported as 77 ± 13 ×10^−5 (s^−1). Further, in data set [4], the “E° vs. NHE” value is 390 mV.

Regarding `NC(=O)CN1CCN(CC(N)=O)CCN(CC(N)=O)CC1.[Fe+2]` [Fe(L1)], in data set [1] (12 hours), the “% dissociation over 12 hours” value was less than 9%. Further, the “resistance … neutral pH” value in data set [1] is listed as “Moderate”. Also, the Ascorbate consumption in data set [3] is recorded as 7.2 ± 0.96 ×10^−5 (s^−1). The “resistance to oxidation to Fe(III)” value in data set [5] is listed as “resistant to oxidation to Fe(III)”. In data set [4], the “E° vs. NHE” value is reported as 860 ± 9 mV. For the same compound, the “formation constant log K” value in data set [2] is reported as 13.5. Further, the “Log K1” value in data set [2] (K1 = [LH+]/([L][H+]), 1.05 mM L, 1.0 mM Fe(OTf)2, 0.10 M NaCl, 25° C.) is recorded as 10.19 ± 0.11. In data set [2] (K2 = [LH2 2+]/([LH+][H+]), 0.10 M NaCl, 25° C.), the “Log K2” value was less than 2. For the same compound, the “Log K3” value in data set [2] (K3 = [LH3 3+]/([LH2 2+][H+]), 0.10 M NaCl, 25° C.) is recorded as less than 2. In addition, in data set [2] (KFeL = [FeL2+]/([Fe2+][L]), 0.10 M NaCl, 25° C.), the “Log K Fe-L” value was 13.47 ± 0.25. Also, the “Log K FeL-OH” value in data set [2] (KFeL-OH = [FeL-OH+]/([FeL2+][OH−]), 0.10 M NaCl, 25° C.) worked out at 9.43 ± 0.18. Moreover, in data set [2] (KFeLH = [FeLH3+]/([FeL2+][H+]), 0.10 M NaCl, 25° C.), the “Log K Fe-LH” value amounted to 5.54 ± 0.14.
